{"source": "patent US11221329B2", "about": "“Treatment of neurological and neurodevelopmental diseases and disorders associated with aberrant ion channel expression and activity” (LIEBER INSTITUTE FOR BRAIN DEVELOPMENT, priority 2015, dated 2022)", "key": {"shTCF4 cells": {"test_system": "shTCF4 cells", "test": "Whole-cell current-clamp recordings (AP spiking, mAHP/sAHP) in shTCF4 (TCF4 knockdown) mPFC layer 2/3 pyramidal neurons, acute brain slices", "type": "cell-based, rat", "settings": "N=8", "description": "(§1) Pregnant Wistar rats were obtained from Charles River Laboratories, Inc., maintained by SoBran on a 12-hour light cycle and fed ad libitum. In utero electroporation was performed as previously described (Chen et al., 2014; Maher and Loturco, 2012a). Electroporation was performed on embryonic day 16 (E16) and gestation age was confirmed during surgery. All plasmids were used at a final concentration of 1.5 μg/μl, and the mPFC was targeted for transfection. Pregnant dams were returned to the same housing conditions after recovery from surgery, and after litters were born, transfected rats were used for experiments at days P18-24.\n(§2) Acute brain slices were obtained from rats and mice as described previously (Maher and Loturco, 2012b). Briefly, P18-24 male and female animals were deeply anesthetized with isoflurane and transcardially perfused with ice-cold oxygenated (95% O2 and 5% CO2) dissecting buffer containing (in mM): 83 NaCl, 2.5 KCl, 1 NaH2PO4, 26.2 NaHCO3, 22 glucose, 72 sucrose, 0.5 CaCl2, and 3.3 MgCl2. Animals were humanly sacrificed and decapitated and the brains were rapidly removed and immersed in ice-cold oxygenated dissection buffer. Coronal slices (300 μm) were cut using a vibratome (Microm HM650V), incubated in dissection buffer for 30-45 minutes at 34° C., and then stored at room temperature. Slices were visualized using IR differential interference microscopy (DIC) (Olympus BX51WI) and a CCD camera (QICAM, QImaging). Individual layer 2/3 pyramidal cells expressing EGFP in rat brain slices were visualized with epifluorescent illumination and a 43× Olympus LUMPlanFLN (0.8 numerical aperture) objective.\n(§3) For all experiments, artificial cerebrospinal fluid (ACSF) was oxygenated (95% O2 and 5% CO2) and contained in (in mM): 125 NaCl, 25 NaHCO3, 1.25 NaH2PO4, 3 KCl, 25 dextrose, 1 MgCl2, and 2 CaCl2, pH 7.3. Patch pipettes were fabricated from borosilicate glass (N51A, King Precision Glass, Inc.) to a resistance of 2-5 MΩ. For current- and voltage-clamp measurements, pipettes were filled with (in mM): 125 potassium gluconate, 10 HEPES, 4 Mg-ATP, 0.3 Na-GTP, 0.1 EGTA, 10 phosophocreatine, 0.05% biocytin, adjusted to pH 7.3 with KOH. For all experiments GABAa receptors were blocked with SR-95531 (Gabazine, 5 μM, Ascent Scientific). For AHP current experiments, synaptic currents were blocked with DL-2-amino-5-phosphopentanoic acid (D,L-AP5, 100 μM, Ascent Scientific), 2,3, dioxo-6-nitro-1,2,3,4, tetrahydrobenzo-quinoxaline-7-sulfonamide (NBQX, 10 μM) and SR-95531 (Gabazine, 5 μM, Ascent Scientific). Ca2+-activated currents were blocked with Tetraethylammonium chloride (TEA, 1 mM, Abcam), apamin (100 nM, Abcam), and carbachol (10 μM, Abcam). Current signals were recorded with either a Multiclamp 700A (Molecular Devices) or with an Axopatch 200B amplifier (Molecular Devices) and were filtered at 2 kHz using a built-in Bessel filter and digitized at 10 kHz. Voltage signals were filtered at 2 kHz and digitized at 10 kHz. Data were acquired using Axograph on a Dell PC. Data acquisition was terminated when series resistance was >15 MΩ. For voltage clamp recordings, pyramidal cells were held at −60 mV. No holding current was used for current-clamp recordings.\n(§4) Axograph was used on a Macintosh computer for analysis. To measure spike frequency, EGFP-positive layer 2/3 neurons of the mPFC were injected with a 600 ms depolarizing current pulses ranging from 50 to 500 pA at 50 pA increments with an 10 s inter-trial interval. Each current pulse was measured in triplicate, and the number of resulting APs was averaged. For analysis of fAHP amplitude, the second and third current evoked spikes within the 600 ms pulse were measured. The fAHP potential was measured by subtracting the voltage at the peak of the fAHP from the threshold potential for spike initiation (slope of AP exceeds 50 mV/ms). The mAHP potential was measured at the peak of the AHP that followed the 600 ms current pulse. […]"}, "shCon cells": {"test_system": "shCon cells", "test": "Whole-cell current-clamp recordings (AP spiking, mAHP/sAHP) in shCon (control shRNA) mPFC layer 2/3 pyramidal neurons, acute brain slices", "type": "cell-based, rat", "description": "as §1, §2, §3, §4"}, "KCNQ1": {"molecular_target": "KCNQ1 (Homo sapiens, UniProt P51787)", "settings": "KCNQ1 antagonist; Towart et al., 2009; cited from earlier work"}, "[1]": {"test_system": "AHP currents in EGFP+ cells expressing shCon or shTCF4", "test": "Whole-cell voltage-clamp recordings of AHP currents with progressive pharmacological blockade", "type": "cell-based, rat", "description": "as §3, with “kHz.” for “kHz. Voltage signals were filtered at 2 kHz and digitized at 10 kHz. Data were acquired using Axograph on a Dell PC. Data acquisition was terminated when series resistance was >15 MΩ. For voltage clamp recordings, pyramidal cells were held at −60 mV. No holding current was used for current-clamp recordings.”"}, "TCF4 protein": {"test_system": "TCF4 protein", "test": "Western blot of endogenous TCF4 protein after shRNA transfection of rat neuroblastoma cells", "type": "cell-based", "settings": "transfected rat neuroblastoma cells; vs control shRNA; N=4", "description": "Rat neuroblastoma cells (B104) were cultured in Dulbecco's modified Eagle medium (DMEM) (Thermo Fisher) supplemented with 10% FBS, 100 U-100 μg/ml Penicillin-Streptomycin, 2 mM L-Glutamine, and 100 μm non-essential amino acids and maintained at 37° C. with 5% CO2. At a confluency of […], cells were co-transfected in 6 well plates using Lipofectamine 3000 (Thermo Fisher) with 0.5 μg PBR-GFP, a puromycin selection plasmid, and 2 μg shRNA or 2 μg CRISPR-Cas9 plasmids according to the manufacturer's protocol. Cells were selected with 500 ng/mL puromycin for 24 hours and were allowed to recover in growth medium lacking penicillin-streptomycin for 48 hours.\nRat neuroblastoma cells were washed in cold PBS, scraped from plates and pelleted by centrifugation at 4000 rpm for 5 minutes at 4° C. […]\n30 μg of total protein were used from each sample; protein was subjected to gel electrophoresis using a 4-12% gradient Novex Bis-Tris Bolt SDS-PAGE gel. […] Bound antibody was detected using IRdye donkey anti-goat 680 (1:10,000, Li-Cor) and IRdye donkey anti-rabbit 800 (1:10,000, Li-Cor). Antibody detection and quantification were carried out using the LI-COR Odyssey infrared system and software."}, "TCF4 transcript": {"test_system": "TCF4 transcript", "test": "qRT-PCR of TCF4 transcript after shRNA transfection of rat neuroblastoma cells", "type": "cell-based", "settings": "transfected rat neuroblastoma cells; vs control shRNA; N=4", "source_text": "To measure Tcf4 transcript expression across the lifespan in the rat, three cortical samples per age group, as well as cortical samples extracted from both genotypes of postnatal day 21 (p21) TCF4 mice to measure SCN10a and KCNQ1 expression, were separately flash frozen and homogenized in Trizol (Life Technologies). Aqueous phase was mixed with a 1:1 volume of 70% ethanol prior to purification using RNeasy mini columns treated with DNAse according to manufacturer's protocol (Qiagen). RNA samples were then reverse-transcribed to cDNA using the Quantscript Reverse Transcriptase kit (Qiagen). Amplification of cDNA was performed with iTaq SYBR Green Supermix (Bio-Rad) and TCF4, KCNQ1, and SCN10a primers were designed using with Primer 3 software (http://bioinfo.ut.ee/primer3-0.4.0/). End-point PCR followed by product sequencing, in addition to cDNA dilution series and melt curve analysis were used to verify primer design efficiency and specificity. Real time PCR was performed on the 7900HT Fast Real-Time PCR system (Applied Biosystems) and melt curve analysis was done for absolute quantification of primer efficiency. Data were expressed as fold change of gene of interest normalized to GAPDH expression using 2^delta delta Ct. […]"}}, "note": "Entries after “also recorded” stand apart in the source; their conditions may differ.", "data": [{"molecule": "CC(C)(Oc1ccc(Cl)cc1)C(=O)NC1C2CC3CC1CC(NS(C)(=O)=O)(C3)C2", "note": "(stereo not drawn) [JNJ303, 2-(4-Chlorophenoxy)-2-methyl-N-[5-[(methylsulfonyl)amino]tricyclo[3.3.1.13,7]dec-2-yl]-propanamide]", "values": [{"measurement": "effect on the frequency of APs generated in response to current injections", "setting": "shTCF4 cells; JNJ303 1 μM, shTCF4 cells, significant for current pulses 250-500 pA, p=0.0084", "value": "effective at increasing the spiking frequency; also recorded: significantly increased firing frequency"}, {"measurement": "amplitude of the sAHP after application", "setting": "shTCF4 cells; JNJ303, shTCF4 cells, before −2.31±0.46 mV, p=0.041", "value": "−1.71±0.33", "unit": "mV"}, {"measurement": "amplitude of the mAHP after application", "setting": "shTCF4 cells; JNJ303, shTCF4 cells, before −3.52±0.58 mV, p<0.044", "value": "−2.77±0.36", "unit": "mV"}, {"measurement": "effect on the frequency of APs (spiking)", "setting": "shCon cells; JNJ303, N=8, p=0.11", "value": "neither UCL2077 (p=0.35) nor JNJ303 (p=0.11) had an effect on spiking"}, {"measurement": "amplitude of the sAHP after application", "setting": "shCon cells; JNJ303, before −4.67±0.48 mV, N=9, p=0.20", "value": "−4.22±0.57"}, {"measurement": "amplitude of the mAHP after application", "setting": "shCon cells; JNJ303, before −5.93±0.58 mV, N=9, not significant", "value": "−5.61±0.74", "unit": "mV"}, {"measurement": "IC50", "setting": "KCNQ1", "value": 64, "unit": "nM"}]}, {"molecule": "CC[N+](CC)(CC)CC.[Cl-]", "note": "[TEA, Tetraethylammonium chloride]", "values": [{"measurement": "effect on the fAHP current", "setting": "[1]; TEA 1 mM bath application, shCon and shTCF4 cells", "value": "blockade of the fAHP current"}]}, {"molecule": "C[N+](C)(C)CCOC(N)=O", "note": "[carbachol]", "values": [{"measurement": "effect on action potential frequency", "setting": "shTCF4 cells; carbachol (10 μM) bath application, shTCF4 neurons, 600 ms pulses 50 to 500 pA, p=0.0075", "value": "effective at rescuing action potential frequency"}, {"measurement": "peak amplitude of the mAHP after application", "setting": "shTCF4 cells; carbachol, shTCF4 cells, before −6.78±0.70, p=0.0051", "value": "−4.23±0.60", "unit": "mV"}, {"measurement": "effect on spiking", "setting": "shCon cells; carbachol bath application, effective for current injections 200-500 pA, N=12, p=0.0038", "value": "increased spiking"}, {"measurement": "amplitude of the sAHP after application", "setting": "shCon cells; carbachol, before −3.13±0.45, N=19, p=0.0004", "value": "−1.10±0.32", "unit": "mV"}, {"measurement": "peak amplitude of the mAHP after application", "setting": "shCon cells; carbachol, before −4.21±0.52, N=19, p=0.0008", "value": "−2.32±0.31", "unit": "mV"}, {"measurement": "effect on the sAHP (voltage clamp)", "setting": "[1]; carbachol, shTCF4 cells, average voltage-clamp traces", "value": "block the sAHP"}]}, {"molecule": "shTCF4: shRNA construct targeting the open reading frame of rat TCF4, AGAAACTAGACGACGACAA (SEQ ID NO:2) (the letters are possibly those of the target site; listed as Homo sapiens)", "values": [{"measurement": "endogenous TCF4 protein (Western blot)", "setting": "TCF4 protein", "value": "1.9±2.0 % of control"}, {"measurement": "TCF4 transcript (qRT-PCR)", "setting": "TCF4 transcript", "value": "0.55±0.15", "unit": "fold change from control"}]}, {"molecule": "shTCF4_2: shRNA construct targeting the 3′ UTR of rat TCF4, GTTTCAGCATTCCCAATTA (SEQ ID NO:1) (the letters are possibly those of the target site)", "values": [{"measurement": "endogenous TCF4 protein (Western blot)", "setting": "TCF4 protein", "value": "36.4±4.3 % of control"}, {"measurement": "TCF4 transcript (qRT-PCR)", "setting": "TCF4 transcript", "value": "0.47±0.11", "unit": "fold change from control"}]}]}
